# Measurements: patent US20200017496A1 (priority 2017, published 2020)
# What was measured:
# Experiment in all cases: MIC of compounds alone and combined with antibacterials, broth microdilution (CLSI)
# Assay type in all cases: cell-based
# [1] = tested on: Citrobacter koseri (CKR) isolates; conditions: for MIC ATB in combination: AF1 @ 4 μg/mL; for MIC: Citrobacter koseri, ATB alone
# Summary of the method: (§1)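 Log-phase isolates at final 5·10^5 CFU/mL in cation-adjusted Mueller-Hinton broth, incubated 16-20 h at 35° C in ambient air. MIC read visually as lowest concentration preventing growth, for compound alone and for antibacterial at each compound concentration.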
# [2] = tested on: Enterobacter cloacae (ECL) isolates
# Summary of the method: as §1
# [3] = tested on: Escherichia coli (ECO) isolates; conditions: AF1 @ 4 μg/mL
# Summary of the method: as §1
# [4] = tested on: Morganella morganii (MMO) isolates; conditions: AF1 @ 4 μg/mL
# Summary of the method: as §1
# [5] = tested on: Providencia stuartii (PST) isolates; conditions: AF1 @ 4 μg/mL
# Summary of the method: as §1
compound,measurement,setting,value
"C=CC1=C(C(=O)O)N2C(=O)[C@@H](NC(=O)/C(=N\O)c3csc(N)n3)[C@H]2SC1 [CDR, Cefdinir]",MIC ATB in combination,[1]; CKO ROU,2 µg/mL
same,MIC ATB in combination,[1]; CKO UFR149,32 µg/mL
same,MIC ATB in combination,[1]; CKO UFR150,4 µg/mL
same,MIC,"[1]; strain CKO ROU (TEM-1, SHV-12, CTX-M-15, OXA-1, OXA-48)",> 256 µg/mL
same,MIC,"[1]; strain CKO UFR150 (TEM-1, OXA-48)",> 256 µg/mL
same,MIC ATB in combination,"[2]; ECL 190310, AF1 @ 4 μg/mL",64 µg/mL
same,MIC ATB in combination,"[2]; ECL 190408, AF1 @ 4 μg/mL",<=0.25 μg/mL
same,MIC ATB in combination,"[2]; ECL 200138, AF1 @ 4 μg/mL",64 µg/mL
same,MIC ATB in combination,"[2]; ECL 200322, AF1 @ 4 μg/mL",4 µg/mL
same,MIC ATB in combination,"[2]; ECL 260253, AF1 @ 4 μg/mL",32 µg/mL
same,MIC ATB in combination,"[2]; ECL 260323, AF1 @ 4 μg/mL",64 µg/mL
same,MIC ATB in combination,"[2]; ECL 260508, AF1 @ 4 μg/mL",2 µg/mL
same,MIC ATB in combination,"[2]; ECL NEM146383, AF1 @ 4 μg/mL",32 µg/mL
same,MIC ATB in combination,"[2]; ECL P99, AF1 @ 4 μg/mL",16 µg/mL
same,MIC ATB in combination,"[2]; ECL UFR12, AF1 @ 4 μg/mL",4 µg/mL
same,MIC ATB in combination,"[2]; ECL UFR13, AF1 @ 4 μg/mL",16 µg/mL
same,MIC ATB in combination,"[2]; ECL UFR14, AF1 @ 4 μg/mL",32 µg/mL
same,MIC ATB in combination,"[2]; ECL UFR60, AF1 @ 4 μg/mL",8 µg/mL
same,MIC ATB in combination,"[2]; ECL UFR70, AF1 @ 4 μg/mL",4 µg/mL
same,MIC ATB in combination,"[2]; ECL UFR84, AF1 @ 4 μg/mL",64 µg/mL
same,MIC ATB in combination,"[2]; ECL UFR85, AF1 @ 4 μg/mL",8 µg/mL
same,MIC ATB in combination,"[2]; ECL UFR194, AF1 @ 4 μg/mL",2 µg/mL
same,MIC ATB in combination,"[2]; ECL UFR200, AF1 @ 4 μg/mL",2 µg/mL
same,MIC ATB in combination,"[2]; strain ECL UFR195, antibacterial combined with AF1 @ 4 μg/mL",4 µg/mL
same,MIC ATB in combination,"[2]; strain ECL UFR196, antibacterial combined with AF1 @ 4 μg/mL",16 µg/mL
same,MIC ATB in combination,"[2]; strain ECL UFR197, antibacterial combined with AF1 @ 4 μg/mL",8 µg/mL
same,MIC ATB in combination,"[2]; strain ECL UFR198, antibacterial combined with AF1 @ 4 μg/mL",32 µg/mL
same,MIC ATB in combination,[3]; ECO 4133,<=0.25 μg/mL
same,MIC ATB in combination,[3]; ECO 5302,<=0.25 μg/mL
same,MIC ATB in combination,[3]; ECO 131119,<=0.25 μg/mL
same,MIC ATB in combination,[3]; ECO 180070,<=0.25 μg/mL
same,MIC ATB in combination,[3]; ECO 190314,<=0.25 μg/mL
same,MIC ATB in combination,[3]; ECO 190317,<=0.25 μg/mL
same,MIC ATB in combination,[3]; ECO 190457,<=0.25 μg/mL
same,MIC ATB in combination,[3]; ECO 190549,<=0.25 μg/mL
same,MIC ATB in combination,[3]; ECO 200159,<=0.25 μg/mL
same,MIC ATB in combination,[3]; ECO 200259,<=0.25 μg/mL
same,MIC ATB in combination,[3]; ECO 200344,<=0.25 μg/mL
same,MIC ATB in combination,[3]; ECO 260096,<=0.25 μg/mL
same,MIC ATB in combination,[3]; ECO 260304,<=0.25 μg/mL
same,MIC ATB in combination,[3]; ECO 260508,<=0.25 μg/mL
same,MIC ATB in combination,[3]; ECO RGN238,<=0.25 μg/mL
same,MIC ATB in combination,[3]; ECO UFR15,<=0.25 μg/mL
same,MIC ATB in combination,[3]; ECO UFR16,1 µg/mL
same,MIC ATB in combination,[3]; ECO UFR18,4 µg/mL
same,MIC ATB in combination,[3]; ECO UFR19,2 µg/mL
same,MIC ATB in combination,[3]; ECO UFR20,16 µg/mL
same,MIC ATB in combination,[3]; ECO UFR61O,0.25 µg/mL
same,MIC ATB in combination,[3]; ECO UFR62,0.5 µg/mL
same,MIC ATB in combination,[3]; ECO UFR74,1 µg/mL
same,MIC ATB in combination,[3]; ECO UFR86,1 µg/mL
same,MIC ATB in combination,[3]; ECO UFR174,<=0.25 μg/mL
same,MIC ATB in combination,[3]; ECO UFR175,0.5 µg/mL
same,MIC ATB in combination,[3]; ECO UFR176,<=0.25 μg/mL
same,MIC ATB in combination,[3]; ECO UFR184,16 µg/mL
same,MIC ATB in combination,[3]; ECO UFR186,1 µg/mL
same,MIC ATB in combination,[3]; ECO UFR187,0.5 µg/mL
same,MIC ATB in combination,[3]; ECO UFR189,<=0.25 μg/mL
same,MIC ATB in combination,[3]; ECO UFR190,0.5 µg/mL
same,MIC ATB in combination,[3]; ECO UFR191,1 µg/mL
same,MIC ATB in combination,[3]; ECO UFR207,<=0.25 μg/mL
same,MIC ATB in combination,[3]; ECO UFR209,<=0.25 μg/mL
same,MIC ATB in combination,[3]; ECO UFR210,<=0.25 μg/mL
same,MIC ATB in combination,[3]; ECO UFR211,<=0.25 μg/mL
same,MIC ATB in combination,[3]; ECO UFR212,32 µg/mL
same,MIC ATB in combination,[3]; ECO UFR218,<=0.25 μg/mL
same,MIC ATB in combination,[4]; MMO 200321,4 µg/mL
same,MIC ATB in combination,[4]; MMO UFR144,4 µg/mL
same,MIC ATB in combination,[4]; MMO UFR240,0.5 µg/mL
same,MIC ATB in combination,[4]; MMO UFR241,4 µg/mL
same,MIC ATB in combination,[4]; MMO UFR242,4 µg/mL
same,MIC ATB in combination,[4]; MMO UFR243,4 µg/mL
same,MIC ATB in combination,[4]; MMO UFR244,2 µg/mL
same,MIC ATB in combination,[4]; MMO UFR245,4 µg/mL
same,MIC ATB in combination,[4]; MMO UFR246,2 µg/mL
same,MIC ATB in combination,[4]; MMO UFR247,1 µg/mL
same,MIC ATB in combination,[5]; PST UFR94,<=0.25 μg/mL
same,MIC ATB in combination,[5]; PST UFR95,1 µg/mL
same,MIC ATB in combination,[5]; PST UFR235,2 µg/mL
